Assay results: PubChem BioAssay AID1963848 (Molecular Pharmacology Branch, DTP, NCI, 2024)

Test system: 379773-124-R-J2-PDC spheroid viability
Assay: Anticancer human tumor 379773-124-R-J2-PDC patient-derived endometrial carcinoma cell line growth inhibition [POLQ]
Conditions: spheroids with HUVEC and MSC; for IC50: curve of first compound; for viability, T/C: stronger effect = lower value
Summary of the method: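 Growth inhibition in 3D: complex spheroids (tumor PDC, HUVEC, MSC) treated with POLQ inhibitor combinations; where Cmax unknown, highest tested concentration 10 microM, except SN-38 at 1 microM.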

[1] = second compound 0.0316 µM, first compound 0.0316 µM
[2] = second compound 0.0316 µM, first compound 0.1 µM
[3] = second compound 0.0316 µM, first compound 0.316 µM
[4] = second compound 0.0316 µM, first compound 1 µM
[5] = second compound 0.0316 µM, first compound 3.16 µM
[6] = second compound 0.0316 µM, first compound 10 µM
[7] = second compound 0.1 µM, first compound 0.0316 µM
[8] = second compound 0.1 µM, first compound 0.1 µM
[9] = second compound 0.1 µM, first compound 0.316 µM
[10] = second compound 0.1 µM, first compound 1 µM
[11] = second compound 0.1 µM, first compound 3.16 µM
[12] = second compound 0.1 µM, first compound 10 µM
[13] = second compound 0.316 µM, first compound 0.0316 µM
[14] = second compound 0.316 µM, first compound 0.1 µM
[15] = second compound 0.316 µM, first compound 0.316 µM
[16] = second compound 0.316 µM, first compound 1 µM
[17] = second compound 0.316 µM, first compound 3.16 µM
[18] = second compound 0.316 µM, first compound 10 µM
[19] = second compound 1 µM, first compound 0.0316 µM
[20] = second compound 1 µM, first compound 0.1 µM
[21] = second compound 1 µM, first compound 0.316 µM
[22] = second compound 1 µM, first compound 1 µM
[23] = second compound 1 µM, first compound 3.16 µM
[24] = second compound 1 µM, first compound 10 µM
[25] = second compound 3.16 µM, first compound 0.0316 µM
[26] = second compound 3.16 µM, first compound 0.1 µM
[27] = second compound 3.16 µM, first compound 0.316 µM
[28] = second compound 3.16 µM, first compound 1 µM
[29] = second compound 3.16 µM, first compound 3.16 µM
[30] = second compound 3.16 µM, first compound 10 µM
[31] = second compound 10 µM, first compound 0.0316 µM
[32] = second compound 10 µM, first compound 0.1 µM
[33] = second compound 10 µM, first compound 0.316 µM
[34] = second compound 10 µM, first compound 1 µM
[35] = second compound 10 µM, first compound 3.16 µM
[36] = second compound 10 µM, first compound 10 µM
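Note: spheroids exposed to drugs for seven days before readout.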
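Throughout, for viability, T/C: percent viability relative to DMSO vehicle control taken as 100%.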

## C#Cc1c(F)ccc2cc(O)cc(-c3ncc4c(N5CC6CCC(C5)N6)nc(OCC56CCCN5CC(F)C6)nc4c3F)c12 (centres undefined) + Cc1cccc(N(C)C(=O)C2C(O)CCN2c2nc(C)cc(C(F)(F)F)c2C#N)c1
Second compound 0.0316 µM
  IC50: > 10 µM
Second compound 0.1 µM
  IC50: > 10 µM
Second compound 0.316 µM
  IC50: > 10 µM
Second compound 1 µM
  IC50: > 10 µM
Second compound 3.16 µM
  IC50: > 10 µM
Second compound 10 µM
  IC50: > 10 µM
[1]
  viability, T/C: 81.5%
[2]
  viability, T/C: 89.3%
[3]
  viability, T/C: 84%
[4]
  viability, T/C: 74.6%
[5]
  viability, T/C: 84%
[6]
  viability, T/C: 82%
[7]
  viability, T/C: 93.8%
[8]
  viability, T/C: 68.7%
[9]
  viability, T/C: 85.8%
[10]
  viability, T/C: 75.2%
[11]
  viability, T/C: 84.8%
[12]
  viability, T/C: 93%
[13]
  viability, T/C: 90.8%
[14]
  viability, T/C: 93.4%
[15]
  viability, T/C: 77.9%
[16]
  viability, T/C: 86.5%
[17]
  viability, T/C: 95.5%
[18]
  viability, T/C: 88.4%
[19]
  viability, T/C: 80%
[20]
  viability, T/C: 78.9%
[21]
  viability, T/C: 73.2%
[22]
  viability, T/C: 82.2%
[23]
  viability, T/C: 95.9%
[24]
  viability, T/C: 90.6%
[25]
  viability, T/C: 78.9%
[26]
  viability, T/C: 87.3%
[27]
  viability, T/C: 85.2%
[28]
  viability, T/C: 80%
[29]
  viability, T/C: 86.2%
[30]
  viability, T/C: 79.4%
[31]
  viability, T/C: 84.9%
[32]
  viability, T/C: 79.7%
[33]
  viability, T/C: 74.2%
[34]
  viability, T/C: 78.4%
[35]
  viability, T/C: 88.9%
[36]
  viability, T/C: 93.8%

## O=C(Nc1ccc(O)c(NS(=O)(=O)c2ccc(F)cc2)c1)c1ccc(-c2ccccc2)cc1 + Cc1cccc(N(C)C(=O)C2C(O)CCN2c2nc(C)cc(C(F)(F)F)c2C#N)c1
Second compound 0.0316 µM
  IC50: > 10 µM
Second compound 0.1 µM
  IC50: > 10 µM
Second compound 0.316 µM
  IC50: > 10 µM
Second compound 1 µM
  IC50: > 10 µM
Second compound 3.16 µM
  IC50: > 10 µM
Second compound 10 µM
  IC50: > 10 µM
[1]
  viability, T/C: 94.5%
[2]
  viability, T/C: 109%
[3]
  viability, T/C: 85.7%
[4]
  viability, T/C: 102%
[5]
  viability, T/C: 88.9%
[6]
  viability, T/C: 75.3%
[7]
  viability, T/C: 88.8%
[8]
  viability, T/C: 91.8%
[9]
  viability, T/C: 87.2%
[10]
  viability, T/C: 92.4%
[11]
  viability, T/C: 86.4%
[12]
  viability, T/C: 85.8%
[13]
  viability, T/C: 96.7%
[14]
  viability, T/C: 104%
[15]
  viability, T/C: 104%
[16]
  viability, T/C: 99.6%
[17]
  viability, T/C: 92.8%
[18]
  viability, T/C: 87%
[19]
  viability, T/C: 102%
[20]
  viability, T/C: 86.2%
[21]
  viability, T/C: 90.9%
[22]
  viability, T/C: 90.2%
[23]
  viability, T/C: 94.5%
[24]
  viability, T/C: 75.5%
[25]
  viability, T/C: 98.3%
[26]
  viability, T/C: 90.3%
[27]
  viability, T/C: 85.4%
[28]
  viability, T/C: 92.5%
[29]
  viability, T/C: 85.4%
[30]
  viability, T/C: 71%
[31]
  viability, T/C: 84%
[32]
  viability, T/C: 93.1%
[33]
  viability, T/C: 80.4%
[34]
  viability, T/C: 94%
[35]
  viability, T/C: 80.5%
[36]
  viability, T/C: 62.3%
